Measurements: patent publication US12635683B2, “Preservation of natural and bioengineered tissues and methods of storing and transport” (LifeNet Health, priority 2021, dated 2026)

Tested on: Epiderm construct
Assay: Construct viability after vitrification and rewarming (metabolic activity)
Type: cell-based, human
Conditions: αT and QVD added together to culture medium before and after vitrification
Procedure: Tissue Culture: Human epidermal models were obtained from commercial sources and maintained according to their specifications. All constructs were incubated in appropriate media for 24 hours under physiological tissue culture conditions before initiating experiments. Fresh controls were used in each experiment and experimental treatment groups were assessed over 4-5 days post-rewarming.
Vitrification Methods: The constructs were gradually infiltrated with precooled vitrification formulations at 4° C. in six steps with 0%, 12.5%, 25%, 50%, 75% and 100% of each formulation to achieve a final cryoprotectant concentration. After rewarming, the vitrification solution was removed in seven sequential steps at 4° C. into culture medium as previously described (see Song et al., Vitreous cryopreservation maintains the function of vascular grafts, Nature Biotechnology, 8(3):296-9, Epub 2000/03/04, doi:10.1038/73737, PubMed PMID: 10700144 (2000); and Song et al., Vitreous Preservation of Rabbit Articular Cartilage, Cell Preservation Technology, 2 (1); 67-74 (2004)).
Once loaded with vitrification solution the construct can be cooled to storage temperature and rewarmed using several methods. (1) The constructs were placed in glass scintillation vials (Diam.×H, 25 mm×60 mm) containing 1.5 mL of pre-cooled vitrification solution with 0.3 mL solution inside the well insert. Then 1 mL of 2-methylbutane (isopentane, freezing point: −160° C., density: 0.62) was placed on top of the vitrification solution in the vial and 0.2 mL inside the well insert at 4° C. to prevent direct air contact. Samples were cooled rapidly (approximately 45° C./minute) to −100° C. by placing the samples in a pre-cooled bath containing isopentane in a −135° C. mechanical storage freezer. Upon achieving −100° C. the specimens were removed from the bath and stored at −135° C. in the mechanical storage freezer, which results in slow cooling (3° C./minute) to −135° C. The samples were held at −135° C. for a minimum of 24 hours. The constructs were rewarmed in two stages, first, slow warming to −100° C. (approximately 30° C./minute) at the top of the mechanical storage freezer and then rapidly warmed to either 0° C. or ±−10° C. approximately 225° C./min) in a 30% ME2SO bath at room temperature. (2) The constructs in inserts are placed within the well of a deep well plate. There is 0.6 mL vitrification solution in the well and 0.2 mL solution in the insert. […]
Resazurin Assay: Was used to measure the metabolic activity and has the advantage of being non-toxic so constructs can be assessed before and several times after treatment. […]

Compound	Effect of additive in culture medium on construct viability	Effect of additive in culture medium on construct viability (listed as QVD)	Effect of additive in culture medium on construct viability (listed as αT)
CC(C)[C@H](NC(=O)c1ccc2ccccc2n1)C(=O)N[C@@H](CC(=O)O)C(=O)COc1c(F)cccc1F [Q-VD-OPH, quinoline-Val-Asp-difluorophenoxymethyl ketone]	improved viability	significant improvement	–
Cc1c(C)c2c(c(C)c1O)CC[C@@](C)(CCC[C@H](C)CCC[C@H](C)CCCC(C)C)O2 [α-tocopherol]	improved viability	–	significant improvement
